According to US20060111320A1, “Fungicidal mixtures based on a triazolopyrimidine derivative and azoles” (priority 2002, published 2006):
Like-named read-outs stand apart in the source and are kept apart here.

How the values were obtained:
Assay type in all cases: in vivo
[1] = tested on: Pyricularia oryzae; conditions: individual active compound, rice seedlings Tai-Nong 67
[2] = tested on: Plasmopara viticola; assay: Activity against Peronospora of grapevines caused by Plasmopara viticola; conditions: individual active compound, potted vines
Procedure: The active compounds, separately or jointly, were prepared as a stock solution with 0.25% by weight of active compound in acetone or DMSO. 1% by weight of the emulsifier Uniperol® EL (wetting agent having emulsifying and dispersing action based on ethoxylated alkylphenols) was added to this solution. The active compounds or the mixtures were diluted with water to the stated concentration.
Evaluation was carried out by determining the infected leaf areas in percent. These percentages were converted into efficacies. The efficacy (W) is calculated as follows using Abbot's formula: W=(1−α/β)·100 • α is the level of fungicidal infection of the treated plants in % and • β is the level of fungicidal infection of the untreated (control) plants in %
An efficacy of 0 means that the infection level of the treated plants corresponds to that of the untreated control plants; an efficacy of 100 means that the treated plants were not infected.
The expected efficacies of the mixtures of active compounds were determined using Colby's formula [R. S. Colby, Weeds 15, 20-22 (1967)] and compared with the observed efficacies. Colby's formula: E=x+y−x·y/100 • E expected efficacy, expressed in % of the untreated control, when using the mixture of the active compounds A and B at the concentrations a and b • x efficacy, expressed in % of the untreated control, when using active compound A at the concentration a • y efficacy, expressed in % of the untreated control, when using active compound B at the concentration b
Leaves of potted vines were sprayed to runoff point with an aqueous suspension having the concentration of active compound stated below. The next day, the undersides of the leaves were inoculated with an aqueous sporangial suspension of Plasmopara viticola. The grapevines were then initially placed into a water-vapor-saturated chamber at 24° C. for 48 hours and then placed in a greenhouse at 20-30° C. for 5 days. After this period of time, the plants were again placed in a humid chamber for 16 hours to promote sporangiophore eruption. The extent to which the infection had developed on the undersides of the leaves was then determined visually.

[3] = tested on: Cochliobolus miyabeanus; assay: Activity against brown spot of rice caused by Cochliobolus miyabeanus, protective treatment; conditions: Bipolaris oryzae, 144 h, read-out: Efficacy in % of the untreated control

SMILES	Efficacy in % of the untreated control ([1]; 1 ppm in the spray liquor) [%]	pest or weed control at 1 ppm [3] [%]	pest or weed control at 4 ppm [3] [%]	pest or weed control at 16 ppm [3] [%]	also measured
CCCOC/C(=N\c1ccc(Cl)cc1C(F)(F)F)n1cncn1 [XI (triflumizole), (4-chloro-2-trifluormethylphenyl)-(2-propoxy-1-[1,2,4]triazol-1-ylethylidene)amine]	11	–	–	–	–
FC(F)C(F)(F)OCC(Cn1cncn1)c1ccc(Cl)cc1Cl (stereo not shown) [X (tetraconazole), 1-[2-(2,4-dichlorophenyl)-3-(1,1,2,2-tetrafluoroethoxy)propyl]-1H-[1,2,4]triazole]	–	–	–	–	Efficacy in % of the untreated control ([2]; 1 ppm in the spray liquor): 0%; Efficacy in % of the untreated control ([2]; 4 ppm in the spray liquor): 0%
N#CC(Cc1ccc(Cl)cc1)(c1ccccc1)n1cncn1 (stereo not shown) [V (fenbuconazole), 3-(4-chlorophenyl)-2-phenyl-2-[1,2,4]triazol-1-ylpropionitrile]	0	–	–	–	–
CC(C)C1CCC(Cc2ccc(Cl)cc2)C1(O)Cn1cncn1 (stereo not shown) [XVI (ipconazole), 2-(4-chlorobenzyl)-5-isopropyl-1-[1,2,4]triazol-1-ylmethylcyclo pentanol]	11	–	–	–	–
OC(Cc1ccccc1Cl)(Cn1nc[nH]c1=S)C1(Cl)CC1 (stereo not shown) [XVIII (prothioconazole), 2-[2-(1-chlorocyclopropyl)-3-(2-chlorophenyl)-2-hydroxypropyl]-2,4-dihydro[l,2,4]triazole-3-thione]	–	13	50	63	–
CCCCC(O)(Cn1cncn1)c1ccc(Cl)cc1Cl (stereo not shown) [VIII (hexaconazole), 2-(2,4-dichlorophenyl)-1-[1,2,4]triazol-1-ylhexan-2-ol]	11	–	–	–	–
Clc1ccc(C2(Cn3cncn3)CC(Br)CO2)c(Cl)c1 (stereo not shown) [II (bromuconazole), 1-[4-bromo-2-(2,4-dichlorophenyl)tetrahydrofuran-2-ylmethyl]-1H-[1,2,4]triazole]	–	13	25	50	–
CC1CCN(c2c(-c3c(F)cc(F)cc3F)c(Cl)nc3ncnn23)CC1 [I, 5-chloro-7-(4-methylpiperidin-1-yl)-6-(2,4,6-trifluorophenyl)-[1,2,4]triazolo[1,5-a]pyrimidine]	11	–	33	–	Efficacy in % of the untreated control ([2]; 1 ppm in the spray liquor): 0%; Efficacy in % of the untreated control ([2]; 4 ppm in the spray liquor): 38%; Efficacy in % of the untreated control ([1]; 0.25 ppm in the spray liquor): 0%; Efficacy in % of the untreated control ([1]; 4 ppm in the spray liquor): 33%
CCCC(Cn1cncn1)c1ccc(Cl)cc1Cl (stereo not shown) [XIV (penconazole), 1-[2-(2,4-dichlorophenyl)pentyl]-1H-[1,2,4]triazole]	–	0	25	63	–
O=c1c2cc(F)ccc2nc(-n2cncn2)n1-c1ccc(Cl)cc1Cl [VI (fluquinconazole), 3-(2,4-dichlorophenyl)-6-fluoro-2-[1,2,4]-triazol-1-yl-3H-quinazolin-4-one]	–	–	–	–	Efficacy in % of the untreated control ([2]; 1 ppm in the spray liquor): 0%; Efficacy in % of the untreated control ([2]; 4 ppm in the spray liquor): 0%
CC1(C)CC/C(=C\c2ccc(Cl)cc2)C1(O)Cn1cncn1 (stereo not shown) [XVII (triticonazole), 5-(4-chlorobenzylidene)-2,2-dimethyl-1-[1,2,4]triazol-1-ylmethyl cyclopentanol]	–	–	–	–	Efficacy in % of the untreated control ([2]; 1 ppm in the spray liquor): 0%; Efficacy in % of the untreated control ([2]; 4 ppm in the spray liquor): 0%
CC1COC(Cn2cncn2)(c2ccc(Oc3ccc(Cl)cc3)cc2Cl)O1 (stereo not shown) [III (difenoconazole)]	–	13	38	63	–
OC(Cn1cncn1)(c1ccc(F)cc1)c1ccccc1F (stereo not shown) [XII (flutriafol), 1-(4-fluorophenyl)-1-(2-fluorophenyl)-2-[1,2,4]triazol-1-ylethanol]	–	0	25	63	–
CC(C)(C)C(O)/C(=C\c1ccc(Cl)cc1Cl)n1cncn1 (stereo not shown) [IV (diniconazole), 1-(2,4-dichlorophenyl)-4,4-dimethyl-2-[1,2,4]triazol-1-ylpent-1-en-3-ol]	–	0	0	25	–
